From patent US6844465B2, “Method for preparing highly stable crystals of aspartame derivative” (Ajinomoto Co., Inc., priority 1998, dated 2005)
Each block holds one molecule with its values, some of them ahead of it.

Columns and labels:
[1] = Stability test at 70° C. of crystals (remaining ratio of N-(3,3-dimethylbutyl)-APM); format: physicochemical
Procedure: Then, the obtained G-type crystals, D-type crystals and A-type crystals of N-(3,3-dimethylbutyl)-APM were tested at 70° C., concerning their stability. […] The relationship between the storage time and the remaining ratio of N-(3,3-dimethylbutyl)-APM in this test will be shown below in Table 1.

[2] = on the weight basis, cited from earlier work

Remaining Ratio (wt. %) ([1]; time elapsed 0 hrs, listed as A): 95 wt. % | Remaining Ratio (wt. %) ([1]; time elapsed 100 hrs, listed as A): 94 wt. % | Remaining Ratio (wt. %) ([1]; time elapsed 271 hrs): 96 wt. % | Remaining Ratio (wt. %) ([1]; time elapsed 271 hrs, listed as A): 96 wt. %
SMILES: COC(=O)[C@H](Cc1ccccc1)NC(=O)[C@H](CC(=O)O)NCCC(C)(C)C [A-type crystals, N-[N-(3,3-dimethylbutyl)-L-α-aspartyl]-L-phenylalanine methyl ester]

Remaining Ratio (wt. %) ([1]; time elapsed 0 hrs, listed as D): 95 wt. % | Remaining Ratio (wt. %) ([1]; time elapsed 100 hrs, listed as D): 96 wt. % | Remaining Ratio (wt. %) ([1]; time elapsed 271 hrs): 77 wt. % | Remaining Ratio (wt. %) ([1]; time elapsed 271 hrs, listed as D): 77 wt. %
SMILES: COC(=O)[C@H](Cc1ccccc1)NC(=O)[C@H](CC(=O)O)NCCC(C)(C)C [D-type crystals, N-[N-(3,3-dimethylbutyl)-L-α-aspartyl]-L-phenylalanine methyl ester]

Remaining Ratio (wt. %) ([1]; time elapsed 0 hrs, listed as G): 96 wt. % | Remaining Ratio (wt. %) ([1]; time elapsed 100 hrs, listed as G): 48 wt. % | Remaining Ratio (wt. %) ([1]; time elapsed 271 hrs): 18 wt. % | Remaining Ratio (wt. %) ([1]; time elapsed 271 hrs, listed as G): 18 wt. %
SMILES: COC(=O)[C@H](Cc1ccccc1)NC(=O)[C@H](CC(=O)O)NCCC(C)(C)C [G-type crystals, N-[N-(3,3-dimethylbutyl)-L-α-aspartyl]-L-phenylalanine methyl ester]

SMILES: COC(=O)[C@H](Cc1ccccc1)NC(=O)[C@H](CC(=O)O)NCCC(C)(C)C [N-(3,3-dimethylbutyl)-ATM, N-[N-(3,3-dimethylbutyl)-L-α-aspartyl]-L-phenylalanine methyl ester]
sweetening potency relative to aspartame ([2]; times that of aspartame): at least 50 times | sweetening potency relative to sucrose (table sugar) ([2]; times that of sucrose): about 10,000 times
